Source: patent publication US10570178B2, “Selective delivery molecules and methods of use” (Avelas Biosciences, Inc., priority 2011, dated 2020)
Numbered stars: 1 amine (or outer) side, 2 acyl side, 3 side chain; on linkers, the order of the positions; unused ones are H or OH. Square brackets hold non-standard residues; d marks the D form. Ends that are not written are not given here. Cys(Me) = S-methyl-cysteine, CSC[C@H](N[*:1])C(=O)[*:2]; Phe(4-Ac) = CC(=O)c1ccc(C[C@H](N)C(=O)O)cc1; AEA = NCCOCC(=O)O

Experiments:
MMP-9 = MMP-9 (Homo sapiens, UniProt P14780); assay: Enzyme dependent fluorescence enhancement: cleavage of quenched SDM by MMP-9; format: biochemical; conditions: 1 μM SDM
Chain of MMP-9 (P14780 94-707): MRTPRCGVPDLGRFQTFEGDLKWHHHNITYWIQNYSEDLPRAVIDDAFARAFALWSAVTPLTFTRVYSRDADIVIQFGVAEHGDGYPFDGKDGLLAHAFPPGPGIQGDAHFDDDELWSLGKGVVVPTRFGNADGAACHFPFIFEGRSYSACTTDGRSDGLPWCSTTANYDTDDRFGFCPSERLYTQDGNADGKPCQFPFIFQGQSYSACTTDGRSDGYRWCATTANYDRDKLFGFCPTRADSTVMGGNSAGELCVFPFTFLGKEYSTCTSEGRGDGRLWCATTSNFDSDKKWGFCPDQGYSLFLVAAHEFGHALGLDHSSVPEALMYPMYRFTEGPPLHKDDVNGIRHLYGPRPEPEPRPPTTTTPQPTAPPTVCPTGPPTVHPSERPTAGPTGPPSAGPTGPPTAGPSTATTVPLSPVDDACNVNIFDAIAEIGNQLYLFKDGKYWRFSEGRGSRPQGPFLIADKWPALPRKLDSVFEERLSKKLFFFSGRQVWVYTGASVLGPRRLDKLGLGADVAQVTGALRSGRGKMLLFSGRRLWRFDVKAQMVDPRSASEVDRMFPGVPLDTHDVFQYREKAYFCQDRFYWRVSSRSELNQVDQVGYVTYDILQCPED
Description: FIG. 3 exemplifies fluorescence enhancement of selective delivery molecules after protease cleavage. SDM-10 was cleaved with 1 nM MMP-9 enzyme in buffered saline. The Cy5 fluorescence increases >100 fold after peptide cleavage because the quencher dyes is no longer intramolecularly attached to Cy5 and it can no longer efficiently quench Cy5.
Selective delivery molecule 10 was dissolved in TCNB buffer (pH 7.5) at room temperature at 1 μM. Fluorescence spectra were recorded on F-2500 fluorescence spectrometer. Excitation of the Cy5 fluorescence donor was excited at 625 nm and the emission was measured at 669 nm. Peptide cleavage was initiated with addition of MMP-9 at a final concentration of 1 nM. The cleavage reaction was complete within 2 hour and the fluorescence was enhanced >100-fold upon protease cleavage, FIG. 3.

[1] = system: HT-1080 tumor homogenates; assay: Fluorogenic response from tumor homogenates (gel electrophoresis); format: biochemical, mouse
Description: FIG. 4 exemplifies fluorescence enhancement of selective delivery molecule SDM-10 upon cleavage by tumor homogenates. Selective delivery molecule 10 (SDM-10) was cleaved with HT-1080 tumor homogenates. 1 nM MMP-9 or 10 uL tumor tissue homogenates (TH2 and TH3) were mixed with 1 uM […] in 100 uL buffer for 24 h at 37° C. GM6001 is a general broad spectrum inhibitor of MMPs. […] Uncleaved SDM-10 is nonfluorescent due to efficient quenching (second column from left).
HT1080 cells (Cat. # CCL-121; American Type Culture Collection, Va., USA) were grown under exponential growth conditions in humidified atmosphere of 5% CO2 in air at 37° C. until reaching 80-100% confluence before harvesting for mouse implantation. Each nude mouse was hand restrained and injected with 2×10^6 HT-1080 cells into the mammary fat pad using a 25-G needle. HT-1080 tumors were harvested when they had reached 100-200 mm^3 in size (typically 1-2 weeks post-tumor cells implantation).
HT-1080 tumors were homogenized using ultrasonic disruption. 1 nM MMP-9 or 10 μl, tumor tissue homogenates (TH2 and TH3) were mixed with 1 μM SDM-10 in 100 μL buffer for 24 h at 37° C. Selective delivery molecule 6 was used as a fluorescent control of similar size to intact SDM-10. The samples were loaded on a polyacrylamide gel and separated using electrophoresis. […] GM6001 is a general broad spectrum inhibitor of MMPs.

[2] = molecular target: T1, matrix metalloproteinase-2 (MMP-2) (Homo sapiens, UniProt P08253); assay: Enzyme dependent fluorescence enhancement and color change: cleavage of FRET SDM by MMP-2; format: biochemical; conditions: 1 μM SDM
T1 sequence (P08253 110-660): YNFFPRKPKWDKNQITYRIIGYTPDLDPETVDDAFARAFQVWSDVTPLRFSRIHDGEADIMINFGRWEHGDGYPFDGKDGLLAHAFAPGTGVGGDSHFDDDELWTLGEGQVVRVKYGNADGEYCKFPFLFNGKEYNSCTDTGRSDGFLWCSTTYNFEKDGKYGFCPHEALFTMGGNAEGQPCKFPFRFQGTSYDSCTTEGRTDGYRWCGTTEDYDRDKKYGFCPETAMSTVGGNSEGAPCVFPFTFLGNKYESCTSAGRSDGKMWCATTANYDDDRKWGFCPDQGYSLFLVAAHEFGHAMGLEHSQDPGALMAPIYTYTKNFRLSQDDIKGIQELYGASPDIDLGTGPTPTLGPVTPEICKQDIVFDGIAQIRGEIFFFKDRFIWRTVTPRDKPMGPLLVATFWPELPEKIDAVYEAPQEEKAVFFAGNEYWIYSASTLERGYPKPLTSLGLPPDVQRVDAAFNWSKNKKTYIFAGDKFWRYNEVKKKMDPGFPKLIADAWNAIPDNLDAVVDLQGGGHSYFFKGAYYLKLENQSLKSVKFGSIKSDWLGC
Description: FIG. 2 exemplifies ratiometric fluorescence changes of selective delivery molecules. In this figure, SDM-9 was cleaved with 1 nM MMP-2 enzyme. The increase of donor (left panel) and decrease in acceptor (right panel) fluorescence is indicative of decreased FRET after peptide cleavage.
Selective delivery molecule 9 was dissolved in TCNB buffer (50 mM Tris, pH 7.5, with 10 mM calcium chloride, 150 mM sodium chloride, and 0.05% BRIJ 35) at room temperature at 1 μM. Fluorescence spectra were recorded on F-2500 fluorescence spectrometer. The Cy5 fluorescence donor was excited using 625 nm light and the emission was scanned from 660 to 800 nm. Peptide cleavage was initiated with addition of matrix metalloproteinase-2 (MMP-2) at a final concentration of 1 nM. The cleavage reaction was complete within 2 hour and the fluorescence spectra indicated FRET disruption and a large 8-fold increase the Cy5 donor emission and 2-fold decrease in the Cy7 emission. The actual intrinsic fluorescence decrease of Cy7 is larger however it is masked by the Cy5 long wavelength shoulder.

HT-1080 xenograft model = assay: In vivo imaging assay for tumor contrast; set-up: species or system mouse
Description: HT-1080 xenograft model was generated as described in Example 14 and used to evaluate the ability of molecules to provide in vivo tumor fluorescence contrast compared to surrounding tissue. Fluorescent conjugates were tested in HT-1080 tumor-bearing mice once the tumors had reached 100-200 mm^3 in size (typically 1-2 weeks post-tumor cells implantation). Conscious HT-1080 tumor-bearing mice were restrained using a rotating tail injector (Cat. # RTI; Braintree Scientific, MA, USA) and dosed intravenously (tail vein) with the test compound at between 0.1 and 5 nanomoles per mouse in 100 uL saline solution. In preparation for imaging, mice were lightly anesthetized with a mixture of ketamine/xylazine (Cat. # K-113; Sigma, Aldrich, Mo., USA) given intraperitoneally (1 μL/gram body weight) to minimize movement.
Serial whole-body imaging (tumor included) was done using a whole-animal fluorescent visualization imaging system or Olympus stereo fluorescent microscope. The mice were positioned on their backs and imaging was performed from the top to image the ventral side of the animal. […] Contrast was calculated using the following equation: Contrast=(Fluorescence intensity of tumor−Fluorescence intensity of contralateral chest tissue)/Intensity of contralateral chest tissue).
Contrast greater than 0.4 in the whole animal is easily detected by eye in the whole animal image and is good contrast. […]

[3] = system: Murine 4T1 tumor model, metastatic cervical lymph nodes; assay: In vivo detection of cancer metastases to lymph node, emission ratio contrast; set-up: species or system mouse; conditions: metastatic vs non-metastatic lymph nodes, peritumoral administration
[4] = 1 nM MMP-2, TCNB buffer pH 7.5, excitation 625 nm

Molecule: SDM-10: prepared analogously to SDM-25 from peptide P-3; Cy5 fluorophore with dye quencher ([dE][dE][dE][dE][dE][Phe(4-Ac)][AEA]PLG[Cys(Me)]AG[dR][dR][dR][dR][dR][dR][dR][dR][dC]-NH2; numbers in words are those of the source; also: Cy5 fluorophore, quencher dye and mPEG carrier attached, sites not given here)
- Cy5 fluorescence enhancement upon protease cleavage (MMP-9; 1 nM MMP-9, excitation 625 nm, emission 669 nm): > 100 fold
- time to complete cleavage reaction (MMP-9; 1 nM MMP-9, room temperature): ≤ 2 h
- cleavage by HT-1080 tumor homogenates ([1]; 1 μM SDM, 10 μL homogenate in 100 μL buffer, 24 h, 37° C.): cleaved and becomes highly fluorescent
- fluorescence of intact, uncleaved form on gel ([1]; polyacrylamide gel): essentially non-fluorescent

Molecule: SDM-9: prepared analogously to SDM-25 from peptide P-3; Cy5 donor and Cy7 FRET acceptor ([dE][dE][dE][dE][dE][Phe(4-Ac)][AEA]PLG[Cys(Me)]AG[dR][dR][dR][dR][dR][dR][dR][dR][dC]-NH2; not fully specified (some residues, N-terminus))
- decrease in Cy7 emission after cleavage [2, 4]: 2 fold
- increase in Cy5 donor emission after cleavage [2, 4]: 8 fold
- time to complete cleavage reaction ([2]; 1 nM MMP-2, room temperature): ≤ 2 h
- Time to maximum contrast (HT-1080 xenograft model; HT-1080 xenograft, IV dosing): Fast (4 < fast < 12)
- Maximum Contrast (HT-1080 xenograft model; tumor vs contralateral chest tissue fluorescence, IV 0.1-5 nanomoles per mouse, imaged 1-24 hours after injection): High (≥0.9 = high)
- Peritumor Maximum Contrast [3]: Low (Low <20%)

Molecule: CNC(=O)[C@H](Cc1c[nH]c2ccccc12)NC(=O)[C@@H](CC(=O)NO)CC(C)C [GM6001, reference compound]
- effect on tumor homogenate cleavage of SDM-10 ([1]; MMP inhibitor added to HT-1080 homogenate with SDM-10): inhibits cleavage
